The record followed here is ChEMBL document CHEMBL1201862, “PubChem BioAssay data set” (2004).

The test system of test [1] is HEK293. The test is described as follows: cytotoxicity in HEK293T NF-kB-Luc cells, SAR follow-up, cytotoxicity control for NF-kB activator project, cell-based, resazurin fluorescence (AID 493251). Conditions: Homo sapiens. The test is classed as functional. Background: The colour change of resazurin is a common sign of viable cells or microbes.
Test [2] deals with Jurkat. The test is described as follows: SAR Analysis of small molecule inhibitors of T-cell specific antigen receptor-induced NF-kB activation in a Jurkat cell line using a luminescence assay - Set 2. [Related pubchem assays (depositor defined):AID435003, AID435012, AID465]. The test is classed as functional, cell-based. The conditions noted are these: Homo sapiens.
Test [3] relates to HEK293. The test is described as follows: SAR Analysis of small molecule inhibitors of T-cell specific antigen receptor-induced NF-kB activation in a HEK-293T cell line using a luminescence assay - Set 2. [Related pubchem assays (depositor defined):AID435003, AID435012, AID489026]. The format is functional, cell-based. Conditions: Homo sapiens.
The target of test [4] is T1, Sentrin-specific protease 8 (Homo sapiens, UniProt Q96LD8).
T1 sequence (Q96LD8 whole entry): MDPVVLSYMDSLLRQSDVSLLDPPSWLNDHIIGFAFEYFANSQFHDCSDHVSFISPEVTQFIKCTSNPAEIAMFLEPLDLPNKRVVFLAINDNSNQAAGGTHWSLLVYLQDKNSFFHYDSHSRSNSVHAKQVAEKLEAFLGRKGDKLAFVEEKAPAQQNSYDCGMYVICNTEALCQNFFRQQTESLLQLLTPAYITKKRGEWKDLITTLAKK
Briefly: SENP8 protease inhibitors, SAR follow-up, biochemical, luminescence (AID 504501). The format is functional.

The target of test [5] is T2, Caspase-3 (Homo sapiens, UniProt P42574).
T2 sequence (P42574 whole entry): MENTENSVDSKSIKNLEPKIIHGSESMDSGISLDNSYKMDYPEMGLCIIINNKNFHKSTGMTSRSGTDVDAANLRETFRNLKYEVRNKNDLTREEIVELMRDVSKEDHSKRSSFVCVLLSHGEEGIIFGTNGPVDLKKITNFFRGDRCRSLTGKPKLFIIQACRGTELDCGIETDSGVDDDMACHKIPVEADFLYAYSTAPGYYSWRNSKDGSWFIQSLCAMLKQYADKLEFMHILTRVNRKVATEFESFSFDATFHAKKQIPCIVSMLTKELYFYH
Briefly: SAR Analysis of small molecule inhibitors of Sentrin-specific proteases (SENPs) using a Caspase-3 Selectivity assay. [Related pubchem assays (depositor defined):AID2540, AID2599, AID434973, AID489001]. The format is functional.

Test [6] deals with T3, Sentrin-specific protease 6 (Homo sapiens, UniProt Q9GZR1).
T3 sequence (Q9GZR1 whole entry): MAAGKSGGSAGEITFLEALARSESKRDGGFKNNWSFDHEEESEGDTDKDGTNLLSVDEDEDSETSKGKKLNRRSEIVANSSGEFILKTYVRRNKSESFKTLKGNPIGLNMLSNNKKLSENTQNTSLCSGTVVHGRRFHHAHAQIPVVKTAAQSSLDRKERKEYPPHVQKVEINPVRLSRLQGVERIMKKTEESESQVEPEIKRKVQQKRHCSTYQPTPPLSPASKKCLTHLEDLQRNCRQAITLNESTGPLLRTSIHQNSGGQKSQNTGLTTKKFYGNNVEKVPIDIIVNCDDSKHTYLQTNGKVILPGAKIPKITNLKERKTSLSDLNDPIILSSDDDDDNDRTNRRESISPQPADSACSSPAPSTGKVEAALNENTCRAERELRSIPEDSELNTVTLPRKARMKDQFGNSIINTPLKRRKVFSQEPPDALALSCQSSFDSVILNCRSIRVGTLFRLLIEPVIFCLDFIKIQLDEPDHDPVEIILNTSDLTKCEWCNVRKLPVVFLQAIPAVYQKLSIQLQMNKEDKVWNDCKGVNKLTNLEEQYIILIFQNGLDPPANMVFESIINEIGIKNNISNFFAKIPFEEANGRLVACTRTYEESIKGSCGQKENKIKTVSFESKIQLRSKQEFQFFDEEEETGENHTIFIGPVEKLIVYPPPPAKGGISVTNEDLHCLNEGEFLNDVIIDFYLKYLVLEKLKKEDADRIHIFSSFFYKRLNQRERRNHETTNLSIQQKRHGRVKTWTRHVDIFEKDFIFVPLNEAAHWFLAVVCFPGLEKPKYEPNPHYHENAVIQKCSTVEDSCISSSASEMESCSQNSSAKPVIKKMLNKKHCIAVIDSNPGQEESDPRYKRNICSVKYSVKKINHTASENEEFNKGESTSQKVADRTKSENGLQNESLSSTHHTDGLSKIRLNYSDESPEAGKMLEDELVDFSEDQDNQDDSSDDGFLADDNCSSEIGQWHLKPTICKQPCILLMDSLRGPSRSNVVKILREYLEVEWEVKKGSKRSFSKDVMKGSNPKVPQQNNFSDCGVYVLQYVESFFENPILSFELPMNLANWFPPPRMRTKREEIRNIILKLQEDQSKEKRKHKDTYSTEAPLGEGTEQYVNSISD
The test is described as follows: SAR Analysis of small molecule inhibitors of Sentrin-specific protease 6 (SENP6) using a Luminescent assay. [Related pubchem assays (depositor defined):AID2582, AID2599]. The format is functional.

In test [7] the target is T4, Sentrin-specific protease 7 (Homo sapiens, UniProt Q9BQF6).
T4 sequence (Q9BQF6 whole entry): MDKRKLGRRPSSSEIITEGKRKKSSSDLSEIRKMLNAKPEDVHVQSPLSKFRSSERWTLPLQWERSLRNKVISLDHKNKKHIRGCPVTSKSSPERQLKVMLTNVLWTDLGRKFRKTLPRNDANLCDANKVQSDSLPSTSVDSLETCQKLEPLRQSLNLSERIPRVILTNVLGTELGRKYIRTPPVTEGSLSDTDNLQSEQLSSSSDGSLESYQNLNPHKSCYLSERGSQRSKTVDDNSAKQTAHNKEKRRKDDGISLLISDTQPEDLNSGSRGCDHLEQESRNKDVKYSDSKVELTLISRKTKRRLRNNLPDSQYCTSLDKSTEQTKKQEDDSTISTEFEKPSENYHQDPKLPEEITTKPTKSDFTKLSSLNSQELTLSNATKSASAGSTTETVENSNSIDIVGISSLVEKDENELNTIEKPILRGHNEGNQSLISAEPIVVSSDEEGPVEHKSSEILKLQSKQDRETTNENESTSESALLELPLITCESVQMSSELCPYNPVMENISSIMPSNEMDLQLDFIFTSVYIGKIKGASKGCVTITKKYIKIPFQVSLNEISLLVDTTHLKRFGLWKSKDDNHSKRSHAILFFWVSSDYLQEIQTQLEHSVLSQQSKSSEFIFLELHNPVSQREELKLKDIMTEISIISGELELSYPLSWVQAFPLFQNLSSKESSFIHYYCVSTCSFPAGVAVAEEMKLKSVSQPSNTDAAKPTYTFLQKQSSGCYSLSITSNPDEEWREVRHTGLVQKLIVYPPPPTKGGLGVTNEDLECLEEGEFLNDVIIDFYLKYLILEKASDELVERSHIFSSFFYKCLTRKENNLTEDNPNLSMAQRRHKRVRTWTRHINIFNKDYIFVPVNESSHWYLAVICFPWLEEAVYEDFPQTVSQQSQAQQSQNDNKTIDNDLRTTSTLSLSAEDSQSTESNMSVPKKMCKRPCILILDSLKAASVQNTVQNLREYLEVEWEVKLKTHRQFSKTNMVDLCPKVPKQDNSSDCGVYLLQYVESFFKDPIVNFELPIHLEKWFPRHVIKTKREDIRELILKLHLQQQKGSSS
Briefly: SENP7 protease inhibitors, SAR follow-up, biochemical, luminescence (AID 504497). The test is classed as functional.

Test [8] deals with T5, SUMO-activating enzyme (Homo sapiens, UniProt Q9UBT2). The test is described as follows: SUMOylation inhibitor hit validation, confirmation, SUMOylation inhibitor project, biochemical, AlphaScreen (AID 2018). The test is classed as functional.
In test [9] the target is T5, SUMO-activating enzyme. Briefly: inhibitors of in vitro SUMOylation cascade, primary screen, biochemical, HTRF, uHTS (AID 2006). The format is protein-complex assay. A general note: Time-resolved FRET reads energy transfer from a long-lived donor to a nearby acceptor.
For test [10], the target named is Eukaryotic translation initiation factor 4E (Mus musculus, UniProt P63073). Briefly: eIF4E–eIF4G protein interaction inhibitors, dose response, biochemical, TR-FRET (AID 855).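 Also: potency for disrupting eIF4E binding to eIF4GI seen as loss of FRET.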 The format is functional.
The subject of test [11] is Vero. The test is described as follows: Vero cell cytotoxicity, cytotoxicity control for flavivirus capping enzyme inhibitors (AID 588742). The format is functional. Conditions: Chlorocebus sabaeus.
In test [12] the test system is INS1. The test is described as follows: beta cell apoptosis inhibitors, cytokine rescue, dose response, luminescence, retest (AID 449756).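 Also: cell death triggered by IL-1 beta plus TNF-alpha plus IFN-gamma mixture; protective hits raise ATP signal compared with cytokine alone wells.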 The format is functional, cell-based. The conditions noted are these: Rattus norvegicus.
Test [13] has as its target Genome polyprotein (dengue virus type 2, UniProt P29990). Briefly: Dengue-2 NS5 methyltransferase inhibitors, primary screen, biochemical, confirmation dose response (AID 588689). The test is classed as functional.
Test [14] is described as follows: AlphaScreen signal interference compounds, dose response, artefact control for ARNT-TACC3 interaction inhibitor project, biochemical, luminescence, cherry-pick (AID 651705).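 Also: AlphaScreen bead proximity signal that flags compounds interfering with the detection technology; potency reflects signal decrease which marks the compound as an assay artifact.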 The test is classed as functional. (In general: In Alpha technology, singlet oxygen from a donor bead excites a nearby acceptor bead.)
In test [15] the target is Albumin (Bos taurus, UniProt P02769). The test is described as follows: Counterscreen for inhibitors of T-cell receptor (TCR)-CD3 interaction: Fluorescence-based biochemical high throughput dose response assay to identify inhibitors of T-cell receptor (TCR)-CD3 interaction using a TAMRA-labeled BSA probe. The format is functional.
Test [16] can be described thus: NIH-3T3 fibroblast cytotoxicity, dose response, cytotoxicity control, cell-based, fluorescence, Alamar Blue, secondary assay (AID 2327).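 Also: NIH-3T3 mouse fibroblasts cultured with fluconazole at 8 µg/mL.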 The format is functional.
Test [17] in a line: cells. The format is functional, cell-based.
Test [18] in a line: C. albicans growth with fluconazole, confirmation, fluorescence, retest (AID 2467). The test is classed as functional, cell-based.
The nature of test [19]: cells. The format is functional, cell-based. This is another data set of the same source.
In test [20] the target is T6, Microphthalmia-associated transcription factor (Homo sapiens, UniProt O75030).
T6 sequence (O75030 whole entry): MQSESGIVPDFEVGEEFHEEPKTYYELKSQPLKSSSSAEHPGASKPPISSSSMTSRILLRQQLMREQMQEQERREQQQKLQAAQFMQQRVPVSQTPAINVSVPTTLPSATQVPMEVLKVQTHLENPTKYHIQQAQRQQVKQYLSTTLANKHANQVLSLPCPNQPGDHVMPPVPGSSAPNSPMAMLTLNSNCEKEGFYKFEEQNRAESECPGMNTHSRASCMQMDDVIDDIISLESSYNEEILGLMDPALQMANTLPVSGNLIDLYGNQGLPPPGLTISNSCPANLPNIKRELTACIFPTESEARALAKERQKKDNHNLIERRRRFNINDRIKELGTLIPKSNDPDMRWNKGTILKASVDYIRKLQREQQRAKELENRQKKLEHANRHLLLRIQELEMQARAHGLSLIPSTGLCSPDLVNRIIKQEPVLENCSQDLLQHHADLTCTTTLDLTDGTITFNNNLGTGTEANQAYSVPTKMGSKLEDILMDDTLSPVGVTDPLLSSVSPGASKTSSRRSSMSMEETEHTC
The test is described as follows: TRPM1 promoter luciferase signal decrease, dose response, MITF inhibitor project, cell-based, SK-MEL-5, cherry-picked, set 3 (AID 493073).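 Also: SK-MEL-5 melanoma cells with luciferase driven by the MITF target TRPM1 promoter.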 The test is classed as functional.

Test [21] has as its system A-375. The test is described as follows: A375 melanoma cell viability reduction, dose response, counter-screen for MITF modulator project, cherry-pick samples, set 2 (AID 540335). The test is classed as functional, cell-based. The conditions noted are these: Homo sapiens.
For test [22], the target named is T2, Caspase-3. The test is described as follows: caspase-3 inhibitors as off-family protease, SAR follow-up, selectivity assay for SENP protease inhibitor project, biochemical, luminescence, set 2 (AID 588599). The format is functional.
Test [23] has as its target T1, Sentrin-specific protease 8. Briefly: SENP8 protease inhibitors, SAR follow-up, biochemical, luminescence, set 2 (AID 588601). The test is classed as functional.
Test [24] has as its target T4, Sentrin-specific protease 7. Briefly: SENP7 protease inhibitors, SAR follow-up, biochemical, luminescence, set 2 (AID 588600). The format is functional.
Test [25] deals with T3, Sentrin-specific protease 6. Briefly: SENP6 protease inhibitors, SAR follow-up, biochemical, luminescence, set 2 (AID 588598). The test is classed as functional.

Calls of active or inactive are those of the source.

T5 sequence (Q9UBE0 whole entry): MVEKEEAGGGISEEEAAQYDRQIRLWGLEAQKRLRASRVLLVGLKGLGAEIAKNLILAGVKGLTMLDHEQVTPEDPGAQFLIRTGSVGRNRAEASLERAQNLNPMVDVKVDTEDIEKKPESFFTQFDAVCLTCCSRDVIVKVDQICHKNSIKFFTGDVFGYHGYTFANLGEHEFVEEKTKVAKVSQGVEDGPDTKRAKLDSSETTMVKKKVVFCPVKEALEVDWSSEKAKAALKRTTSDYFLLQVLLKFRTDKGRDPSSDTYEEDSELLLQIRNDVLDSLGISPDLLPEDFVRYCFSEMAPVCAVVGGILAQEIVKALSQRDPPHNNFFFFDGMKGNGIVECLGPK
T5 sequence (Q9UBT2 whole entry): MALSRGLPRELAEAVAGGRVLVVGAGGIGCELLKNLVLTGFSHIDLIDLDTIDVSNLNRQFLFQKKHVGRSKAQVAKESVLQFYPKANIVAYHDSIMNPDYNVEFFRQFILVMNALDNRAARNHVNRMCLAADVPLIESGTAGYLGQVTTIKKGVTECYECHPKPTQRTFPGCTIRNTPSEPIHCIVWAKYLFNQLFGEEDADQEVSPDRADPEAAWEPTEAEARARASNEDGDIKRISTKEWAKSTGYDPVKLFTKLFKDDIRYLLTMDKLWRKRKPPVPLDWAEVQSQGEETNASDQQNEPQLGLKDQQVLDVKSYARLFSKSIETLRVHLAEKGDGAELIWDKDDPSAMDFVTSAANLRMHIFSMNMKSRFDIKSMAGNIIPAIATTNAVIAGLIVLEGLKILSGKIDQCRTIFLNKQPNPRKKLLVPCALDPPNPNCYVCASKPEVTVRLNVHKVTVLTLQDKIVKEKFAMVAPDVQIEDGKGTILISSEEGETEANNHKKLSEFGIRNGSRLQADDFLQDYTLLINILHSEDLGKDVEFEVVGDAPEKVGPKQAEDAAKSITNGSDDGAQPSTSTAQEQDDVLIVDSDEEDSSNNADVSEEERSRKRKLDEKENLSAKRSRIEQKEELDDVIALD
Chain of Genome polyprotein (P29990 2492-3391 limits assumed): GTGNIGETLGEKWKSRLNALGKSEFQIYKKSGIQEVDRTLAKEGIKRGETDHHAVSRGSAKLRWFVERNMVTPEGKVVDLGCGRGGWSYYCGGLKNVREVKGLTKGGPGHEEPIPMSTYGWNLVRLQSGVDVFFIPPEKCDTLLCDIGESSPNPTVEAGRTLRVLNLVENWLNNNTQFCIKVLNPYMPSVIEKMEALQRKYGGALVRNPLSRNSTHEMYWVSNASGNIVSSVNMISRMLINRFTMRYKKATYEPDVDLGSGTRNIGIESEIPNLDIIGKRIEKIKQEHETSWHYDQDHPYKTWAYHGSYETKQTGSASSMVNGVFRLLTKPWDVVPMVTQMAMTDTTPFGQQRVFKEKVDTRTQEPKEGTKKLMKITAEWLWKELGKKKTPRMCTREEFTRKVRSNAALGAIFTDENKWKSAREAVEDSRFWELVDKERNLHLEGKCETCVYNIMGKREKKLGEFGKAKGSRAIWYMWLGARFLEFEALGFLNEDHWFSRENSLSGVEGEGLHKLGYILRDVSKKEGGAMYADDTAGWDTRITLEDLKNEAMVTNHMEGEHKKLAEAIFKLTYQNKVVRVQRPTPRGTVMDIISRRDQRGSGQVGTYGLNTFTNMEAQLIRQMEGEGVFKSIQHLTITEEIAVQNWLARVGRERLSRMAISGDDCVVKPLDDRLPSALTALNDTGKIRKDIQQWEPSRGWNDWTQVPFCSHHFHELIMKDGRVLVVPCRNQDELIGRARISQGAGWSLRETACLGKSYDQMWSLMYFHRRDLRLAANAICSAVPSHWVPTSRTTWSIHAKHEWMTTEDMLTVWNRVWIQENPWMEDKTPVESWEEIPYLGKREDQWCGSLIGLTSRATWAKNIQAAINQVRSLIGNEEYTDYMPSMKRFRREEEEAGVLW
Chain of Eukaryotic translation initiation factor 4E (P63073 whole entry): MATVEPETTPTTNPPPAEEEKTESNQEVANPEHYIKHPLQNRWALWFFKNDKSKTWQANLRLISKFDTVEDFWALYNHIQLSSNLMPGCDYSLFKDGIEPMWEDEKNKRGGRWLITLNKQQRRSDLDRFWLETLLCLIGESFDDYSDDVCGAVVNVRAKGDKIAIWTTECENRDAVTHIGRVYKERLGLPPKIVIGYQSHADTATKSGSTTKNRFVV
Chain of Albumin (P02769 whole entry): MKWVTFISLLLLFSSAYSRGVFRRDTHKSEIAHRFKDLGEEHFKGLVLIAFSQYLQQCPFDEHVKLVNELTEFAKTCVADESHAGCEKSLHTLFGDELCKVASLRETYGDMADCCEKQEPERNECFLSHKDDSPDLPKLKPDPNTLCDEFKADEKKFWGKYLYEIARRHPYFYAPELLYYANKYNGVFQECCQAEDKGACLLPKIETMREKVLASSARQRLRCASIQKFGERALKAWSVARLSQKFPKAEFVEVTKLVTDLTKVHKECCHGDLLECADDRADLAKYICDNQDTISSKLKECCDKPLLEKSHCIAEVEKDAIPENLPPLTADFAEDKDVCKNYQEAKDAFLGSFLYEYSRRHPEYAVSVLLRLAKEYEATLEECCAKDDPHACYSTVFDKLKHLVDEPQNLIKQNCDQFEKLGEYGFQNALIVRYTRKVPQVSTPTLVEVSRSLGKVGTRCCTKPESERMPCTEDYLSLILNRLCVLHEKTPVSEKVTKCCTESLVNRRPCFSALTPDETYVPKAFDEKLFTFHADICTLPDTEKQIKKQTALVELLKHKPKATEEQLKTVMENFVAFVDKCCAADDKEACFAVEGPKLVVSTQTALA

Take `CC(C)CC(=O)NC(c1ccccc1)c1ccc2cccnc2c1O` (stereo unspecified): the IC50 was 10.4 µM (active) in test [1], 4.18 µM (active) in test [2] and 7.19 µM (active) in [3].

With `CCS(=O)(=O)c1cccc(C(=O)Nc2nc3ccc(Br)cc3s2)c1`, the IC50 in [4], in test [5], in [6] and in test [7] was > 99 µM (inactive) throughout.

Consider `Cc1ccccc1C(=O)Nc1cccc(C(=O)N/N=C/c2cc(Cl)cc([N+](=O)[O-])c2O)c1`, for which the half-maximal inhibitory concentration (IC50) in test [8] is 6.22 µM (active); in test [9], > 100 µM (inactive); in test [10], 50 µM (inactive); in test [13], > 100 µM (active); in test [15], > 94.1 µM (inactive). In test [11], the CC50 is 33 µM (active). In addition, the AC50 in test [12] is 7.14 µM (active); in test [14] it was 95.3 µM (active).

For `O=C(N/N=C\c1cc(Cl)ccc1O)c1ccc(S(=O)(=O)N2CCCCC2)cc1`, the EC50 in [16] is 63.9 µM (inconclusive); in test [17], 265 µM (active); in test [18], 0.381 µM (active); in test [19], > 350 µM (not active). For the same molecule, the AC50 in [20] is 2.81 µM (active); in [12], 1.01 µM (active); in test [21], 46.3 µM (active).

As to `Cc1[nH]c2ccccc2c1C(=O)C(=O)NCc1cccnc1`, the IC50 in [22], in test [23], in [24] and in [25] was > 99 µM (inactive) each time.

As usually defined, the IC50 is the concentration needed to halve the response being measured. Broadly, the CC50 is the concentration that lowers cell viability or growth by half. As usually defined, the AC50 is the concentration at which the activity in the assay is half-maximal. Usually EC50 stands for the midpoint of the concentration-response curve.
